Tested on: baby corn seeds
Test: root length developed on baby corn seeds after treatment with homeopathic growth stimulant
Assay type: in vivo
Protocol: The length of roots that developed on the baby corn seeds, after treatment of the seeds with various concentrations of homeopathic growth stimulant, was measured. […] This critical transition indicates a fundamental difference in the chemical structure of the resulting plant enhancement substance by molecular cloistering. The criticality and creation of a chemically different substance brought about by dilution is indicated by the synergy of combining the resulting dilution medium and dissolved homeopathic growth stimulant with a nutrient source such as a fertilizer. This synergy is evidenced by the multiplication of growth increase in target plants resulting from the combination. […] However, treatment of a target plant using a combination of dilution medium and dissolved homeopathic growth stimulant along with a nutrient source increases plant growth tenfold.

## O.O.O.O.O.O=S(=O)([O-])[O-].[Cu+2] [CuSO4, copper sulfate pentahydrate (CuSO4.5H2O)]
High concentration
  root development: arrests root development
Higher concentrations of CuSO4 in the homeopathic growth stimulant
  root growth (length of roots): arrest root growth
Homeopathic concentration (3-12X potency)
  root growth: acts as a root growth enhancer
Lower concentrations of CuSO4, below the homeopathic barrier or threshold concentration
  root growth (length of roots): enhance root growth
